Laboratory results: patent publication US4118561A, “7-(Substituted)-7H-pyrrolo[3,2-f]quinazoline-1,3-diamines” (priority 1977, dated 1978)
Values after ≈ are worked out from the molar mass of the structure shown.

What was measured:
S. aureus Smith = assay: In vitro antibacterial activity (MIC), S. aureus Smith; conditions: Staphylococcus aureus, 18 h
N. catarrhalis 8193 = assay: In vitro antibacterial activity (MIC), N. catarrhalis 8193; conditions: 18 h
E. coli 9637 = assay: In vitro antibacterial activity (MIC), E. coli 9637; conditions: Escherichia coli, 9637, 18 h
S. paratyphi 11737 = assay: In vitro antibacterial activity (MIC), S. paratyphi 11737; type: cell-based; conditions: Salmonella enterica, 18 h
K. pneumoniae 10031 = assay: In vitro antibacterial activity (MIC), K. pneumoniae 10031; conditions: Klebsiella pneumoniae, 10031, 18 h
P. vulgaris 6896 = assay: In vitro antibacterial activity (MIC), P. vulgaris 6896; conditions: Proteus vulgaris, 6896, 18 h
S. aureus 53-180 = assay: In vitro antibacterial activity (MIC), S. aureus 53-180; conditions: Staphylococcus aureus, 53180, 18 h

SMILES	MIC (S. aureus Smith)	MIC (N. catarrhalis 8193)	MIC (E. coli 9637)	MIC (S. paratyphi 11737)	MIC (K. pneumoniae 10031)	MIC (P. vulgaris 6896)	MIC (S. aureus 53-180)
Nc1nc(N)c2c(ccc3[nH]ccc32)n1 [Example 1, 7-H-Pyrrolo[3,2-f]quinazoline-1,3-diamine]	31.3 µg/mL (≈ 157 µM)	0.244 µg/mL (≈ 1.22 µM)	3.9 µg/mL (≈ 19.6 µM)	31.3 µg/mL (≈ 157 µM)	7.81 µg/mL (≈ 39.2 µM)	15.6 µg/mL (≈ 78.3 µM)	31.3 µg/mL (≈ 157 µM)
Nc1nc(N)c2c(ccc3c2ccn3Cc2ccc(C(F)(F)F)cc2)n1 [Example 13]	1.95 µg/mL (≈ 5.46 µM)	0.031 µg/mL (≈ 0.0868 µM)	3.9 µg/mL (≈ 10.9 µM)	15.6 µg/mL (≈ 43.7 µM)	0.976 µg/mL (≈ 2.73 µM)	31.3 µg/mL (≈ 87.6 µM)	0.976 µg/mL (≈ 2.73 µM)
Cc1cccc(C)c1Cn1ccc2c3c(N)nc(N)nc3ccc21 [Example 24]	250 µg/mL (≈ 788 µM)	0.122 µg/mL (≈ 0.384 µM)	250 µg/mL (≈ 788 µM)	> 250 µg/mL	15.6 µg/mL (≈ 49.1 µM)	> 250 µg/mL	250 µg/mL (≈ 788 µM)
Cc1cc(C)cc(Cn2ccc3c4c(N)nc(N)nc4ccc32)c1 [Example 26]	0.976 µg/mL (≈ 3.08 µM)	0.031 µg/mL (≈ 0.0977 µM)	7.81 µg/mL (≈ 24.6 µM)	15.6 µg/mL (≈ 49.1 µM)	0.244 µg/mL (≈ 0.769 µM)	15.6 µg/mL (≈ 49.1 µM)	0.488 µg/mL (≈ 1.54 µM)
Cc1cc(C)c(C)c(Cn2ccc3c4c(N)nc(N)nc4ccc32)c1C [Example 28]	15.6 µg/mL (≈ 45.2 µM)	0.244 µg/mL (≈ 0.706 µM)	> 250 µg/mL	> 250 µg/mL	3.9 µg/mL (≈ 11.3 µM)	> 250 µg/mL	15.6 µg/mL (≈ 45.2 µM)
COc1cccc(Cn2ccc3c4c(N)nc(N)nc4ccc32)c1OC [Example 35]	0.488 µg/mL (≈ 1.4 µM)	0.122 µg/mL (≈ 0.349 µM)	0.488 µg/mL (≈ 1.4 µM)	15.6 µg/mL (≈ 44.6 µM)	0.488 µg/mL (≈ 1.4 µM)	7.81 µg/mL (≈ 22.4 µM)	0.244 µg/mL (≈ 0.698 µM)
COc1ccc(OC)c(Cn2ccc3c4c(N)nc(N)nc4ccc32)c1 [Example 36]	0.244 µg/mL (≈ 0.698 µM)	0.031 µg/mL (≈ 0.0887 µM)	0.976 µg/mL (≈ 2.79 µM)	3.9 µg/mL (≈ 11.2 µM)	0.031 µg/mL (≈ 0.0887 µM)	3.9 µg/mL (≈ 11.2 µM)	0.122 µg/mL (≈ 0.349 µM)
CCOc1ccc(Cn2ccc3c4c(N)nc(N)nc4ccc32)cc1 [Example 40]	1.95 µg/mL (≈ 5.85 µM)	0.122 µg/mL (≈ 0.366 µM)	1.95 µg/mL (≈ 5.85 µM)	7.81 µg/mL (≈ 23.4 µM)	3.9 µg/mL (≈ 11.7 µM)	7.81 µg/mL (≈ 23.4 µM)	0.488 µg/mL (≈ 1.46 µM)
Nc1nc(N)c2c(ccc3c2ccn3Cc2cscn2)n1 [Example 42]	0.488 µg/mL (≈ 1.65 µM)	0.0038 µg/mL (≈ 0.0128 µM)	0.244 µg/mL (≈ 0.823 µM)	0.976 µg/mL (≈ 3.29 µM)	0.122 µg/mL (≈ 0.412 µM)	0.976 µg/mL (≈ 3.29 µM)	0.244 µg/mL (≈ 0.823 µM)
Nc1nc(N)c2c(ccc3c2ccn3Cc2csc3ccccc23)n1 [Example 46]	31.3 µg/mL (≈ 90.6 µM)	1.95 µg/mL (≈ 5.65 µM)	125 µg/mL (≈ 362 µM)	> 250 µg/mL	15.6 µg/mL (≈ 45.2 µM)	> 250 µg/mL	31.3 µg/mL (≈ 90.6 µM)
Cc1noc(C)c1Cn1ccc2c3c(N)nc(N)nc3ccc21 [Example 52]	1.95 µg/mL (≈ 6.32 µM)	0.0152 µg/mL (≈ 0.0493 µM)	0.976 µg/mL (≈ 3.17 µM)	1.95 µg/mL (≈ 6.32 µM)	0.244 µg/mL (≈ 0.791 µM)	3.9 µg/mL (≈ 12.6 µM)	0.976 µg/mL (≈ 3.17 µM)
Nc1nc(N)c2c(ccc3c2ccn3CC=Cc2ccccc2)n1 [Example 57]	1.95 µg/mL (≈ 6.18 µM)	0.122 µg/mL (≈ 0.387 µM)	3.9 µg/mL (≈ 12.4 µM)	15.6 µg/mL (≈ 49.5 µM)	0.488 µg/mL (≈ 1.55 µM)	7.81 µg/mL (≈ 24.8 µM)	0.976 µg/mL (≈ 3.09 µM)
COc1cc(Cn2ccc3c4c(N)nc(N)nc4ccc32)cc(OC)c1 [Example 58]	0.488 µg/mL (≈ 1.4 µM)	0.061 µg/mL (≈ 0.175 µM)	0.976 µg/mL (≈ 2.79 µM)	1.95 µg/mL (≈ 5.58 µM)	0.122 µg/mL (≈ 0.349 µM)	15.6 µg/mL (≈ 44.6 µM)	0.244 µg/mL (≈ 0.698 µM)
Nc1nc(N)c2c(ccc3c2ccn3Cc2cccs2)n1 [Example 59]	0.244 µg/mL (≈ 0.826 µM)	0.0019 µg/mL (≈ 0.00643 µM)	0.061 µg/mL (≈ 0.207 µM)	0.244 µg/mL (≈ 0.826 µM)	0.061 µg/mL (≈ 0.207 µM)	0.244 µg/mL (≈ 0.826 µM)	0.061 µg/mL (≈ 0.207 µM)
Nc1nc(N)c2c(ccc3c2ccn3Cc2ccc3ccccc3c2Br)n1 [Example 60]	31.3 µg/mL (≈ 74.8 µM)	0.488 µg/mL (≈ 1.17 µM)	> 250 µg/mL	> 250 µg/mL	15.6 µg/mL (≈ 37.3 µM)	> 250 µg/mL	15.6 µg/mL (≈ 37.3 µM)
Cn1ccc2c3c(N)nc(N)nc3ccc21 [Example 65, 7-Methyl-7H-pyrrolo[3,2-f]quinazoline-1,3-diamine]	62.5 µg/mL (≈ 293 µM)	0.031 µg/mL (≈ 0.145 µM)	0.976 µg/mL (≈ 4.58 µM)	3.9 µg/mL (≈ 18.3 µM)	1.95 µg/mL (≈ 9.14 µM)	1.95 µg/mL (≈ 9.14 µM)	7.81 µg/mL (≈ 36.6 µM)
Nc1nc(N)c2c(ccc3c2ccn3CC2CCCO2)n1 (stereo not shown) [Example 67, 7-[(Tetrahydro-2-furanyl)methyl]-7H-pyrrolo-[3,2-f]quinazoline-1,3-diamine]	3.9 µg/mL (≈ 13.8 µM)	0.0038 µg/mL (≈ 0.0134 µM)	1.95 µg/mL (≈ 6.88 µM)	7.81 µg/mL (≈ 27.6 µM)	0.488 µg/mL (≈ 1.72 µM)	3.9 µg/mL (≈ 13.8 µM)	0.976 µg/mL (≈ 3.44 µM)
Nc1nc(N)c2c(ccc3c2ccn3Cc2ccc(C(=O)[O-])cc2)n1.[Na+] [Example 68, 7-(4-Carboxybenzyl)-7H-pyrrolo[3,2-f]-quinazoline-1,3-diamine, sodium salt]	250 µg/mL	62.5 µg/mL	> 250 µg/mL	> 250 µg/mL	> 250 µg/mL	250 µg/mL	250 µg/mL
CCC(=O)c1ccc(-n2ccc3c4c(N)nc(N)nc4ccc32)cc1 [Example 72]	31.3 µg/mL (≈ 94.5 µM)	0.031 µg/mL (≈ 0.0935 µM)	15.6 µg/mL (≈ 47.1 µM)	> 250 µg/mL	31.3 µg/mL (≈ 94.5 µM)	> 250 µg/mL	7.81 µg/mL (≈ 23.6 µM)
N#Cc1ccccc1-n1ccc2c3c(N)nc(N)nc3ccc21 [Example 73]	0.031 µg/mL (≈ 0.103 µM)	0.0038 µg/mL (≈ 0.0127 µM)	0.122 µg/mL (≈ 0.406 µM)	0.122 µg/mL (≈ 0.406 µM)	0.0152 µg/mL (≈ 0.0506 µM)	0.488 µg/mL (≈ 1.62 µM)	0.0152 µg/mL (≈ 0.0506 µM)
CS(=O)(=O)c1ccc(-n2ccc3c4c(N)nc(N)nc4ccc32)cc1 [Example 74]	0.976 µg/mL (≈ 2.76 µM)	0.0152 µg/mL (≈ 0.043 µM)	0.976 µg/mL (≈ 2.76 µM)	7.81 µg/mL (≈ 22.1 µM)	0.244 µg/mL (≈ 0.69 µM)	15.6 µg/mL (≈ 44.1 µM)	0.976 µg/mL (≈ 2.76 µM)
CCOC(=O)c1ccc(-n2ccc3c4c(N)nc(N)nc4ccc32)cc1 [Example 75]	125 µg/mL (≈ 360 µM)	0.122 µg/mL (≈ 0.351 µM)	> 250 µg/mL	> 250 µg/mL	250 µg/mL (≈ 720 µM)	> 250 µg/mL	7.81 µg/mL (≈ 22.5 µM)
Nc1nc(N)c2c(ccc3c2ccn3-c2ccc([N+](=O)[O-])cc2[N+](=O)[O-])n1 [Example 78]	0.0076 µg/mL (≈ 0.0208 µM)	0.0019 µg/mL (≈ 0.0052 µM)	3.9 µg/mL (≈ 10.7 µM)	> 250 µg/mL	0.031 µg/mL (≈ 0.0849 µM)	> 250 µg/mL	0.0076 µg/mL (≈ 0.0208 µM)
N#Cc1cc([N+](=O)[O-])ccc1-n1ccc2c3c(N)nc(N)nc3ccc21 [Example 79]	0.488 µg/mL (≈ 1.41 µM)	0.244 µg/mL (≈ 0.707 µM)	15.6 µg/mL (≈ 45.2 µM)	> 250 µg/mL	1.95 µg/mL (≈ 5.65 µM)	> 250 µg/mL	0.488 µg/mL (≈ 1.41 µM)
Nc1nc(N)c2c(ccc3c2ccn3-c2ccccn2)n1 [Example 83]	0.976 µg/mL (≈ 3.53 µM)	0.0076 µg/mL (≈ 0.0275 µM)	0.488 µg/mL (≈ 1.77 µM)	0.976 µg/mL (≈ 3.53 µM)	0.244 µg/mL (≈ 0.883 µM)	0.976 µg/mL (≈ 3.53 µM)	0.488 µg/mL (≈ 1.77 µM)
Nc1nc(N)c2c(ccc3c2ccn3-c2ncccn2)n1 [Example 84]	15.6 µg/mL (≈ 56.3 µM)	0.061 µg/mL (≈ 0.22 µM)	7.81 µg/mL (≈ 28.2 µM)	> 250 µg/mL	0.976 µg/mL (≈ 3.52 µM)	> 250 µg/mL	3.9 µg/mL (≈ 14.1 µM)
Nc1nc(N)c2c(ccc3c2ccn3-c2cnccn2)n1 [Example 85]	3.9 µg/mL (≈ 14.1 µM)	0.122 µg/mL (≈ 0.44 µM)	0.976 µg/mL (≈ 3.52 µM)	3.9 µg/mL (≈ 14.1 µM)	0.976 µg/mL (≈ 3.52 µM)	3.9 µg/mL (≈ 14.1 µM)	1.95 µg/mL (≈ 7.03 µM)
Nc1nc(N)c2c(ccc3c2ccn3-c2ccc3ccccc3n2)n1 [Example 86]	> 250 µg/mL	0.122 µg/mL (≈ 0.374 µM)	> 250 µg/mL	> 250 µg/mL	> 250 µg/mL	> 250 µg/mL	> 250 µg/mL
